From PubChem BioAssay (NCI)
Where “and” joins values, the source holds several entries; their conditions need not be identical. Equal values may be shown once.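 Where inhibition never reached the appropriate level, the endpoint shown equals the highest concentration tested. Otherwise, values were interpolated linearly from a five-concentration, 48-hour dose response in 96-well plates. Here, GI50 denotes the concentration required for 50% inhibition of growth. The concentration for full growth arrest is given as TGI.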

Tests used:
Test in all cases: inhibition of tumour cell growth, NCI panel, 48 h
HS 578T breast = test system: HS 578T breast
NCI-H460 lung = test system: NCI-H460 lung
CCRF-CEM leukemia = test system: CCRF-CEM leukemia
K-562 leukemia = test system: K-562 leukemia
SW-620 colon = test system: SW-620 colon
NCI-H522 lung = test system: NCI-H522 lung
HOP-62 NSCLC = test system: HOP-62 NSCLC
OVCAR-4 ovarian = test system: OVCAR-4 ovarian
RXF 393 renal = test system: RXF 393 renal
MALME-3M melanoma = test system: MALME-3M melanoma

## Nc1c(C(=O)Nc2cccc3ccccc23)sc2nc3c(cc12)CCCC3
HS 578T breast
  GI50: 0.852 µM
  TGI: > 100 µM
NCI-H460 lung
  GI50: 2.98 µM
  TGI: > 100 µM
CCRF-CEM leukemia
  GI50: 0.658 µM
  TGI: > 100 µM
K-562 leukemia
  GI50: 0.349 µM
  TGI: > 100 µM
SW-620 colon
  GI50: 0.552 µM
  TGI: > 100 µM
NCI-H522 lung
  GI50: 0.417 µM
  TGI: 4.6 µM
HOP-62 NSCLC
  GI50: 2.16 µM
  TGI: > 100 µM
OVCAR-4 ovarian
  GI50: 1.11 µM
  TGI: > 100 µM
RXF 393 renal
  GI50: 2.77 µM
  TGI: > 100 µM

## CNC1=C(C)C(=O)C(C)=C(C(C)(C)CC(=O)n2cc(F)c(=O)[nH]c2=O)C1=O
MALME-3M melanoma
  TGI: > 100 µM
NCI-H460 lung
  TGI: > 100 µM
CCRF-CEM leukemia
  TGI: > 100 µM
K-562 leukemia
  TGI: > 100 µM
SW-620 colon
  TGI: > 100 µM
NCI-H522 lung
  TGI: > 100 µM
HOP-62 NSCLC
  TGI: > 53.8 µM
OVCAR-4 ovarian
  TGI: > 100 µM
RXF 393 renal
  TGI: > 100 µM

## COc1cc(NCC(C#N)C#N)ccc1N=Nc1ccc([N+](=O)[O-])cc1
MALME-3M melanoma
  TGI: > 100 µM
NCI-H460 lung
  TGI: > 100 µM
CCRF-CEM leukemia
  TGI: > 100 µM
K-562 leukemia
  TGI: > 100 µM
SW-620 colon
  TGI: > 100 µM
NCI-H522 lung
  TGI: > 100 µM
HOP-62 NSCLC
  TGI: > 100 µM
OVCAR-4 ovarian
  TGI: > 100 µM
RXF 393 renal
  TGI: > 100 µM

## Cc1cc[c-]cc1.Fc1c[c-]c(-c2ccccn2)c(F)c1.N#CCC[PH+](CCC#N)c1ccccc1.[Pt+2]
HS 578T breast
  GI50: 3.39 µM
  TGI: 43.5 µM
NCI-H460 lung
  GI50: 3.05 µM
  TGI: 10.1 µM
CCRF-CEM leukemia
  GI50: 3.49 µM
  TGI: > 100 µM
K-562 leukemia
  GI50: 3.48 µM
  TGI: > 100 µM
SW-620 colon
  GI50: 2.25 µM
  TGI: 5.35 µM
NCI-H522 lung
  GI50: 1.96 µM
  TGI: 5.58 µM
HOP-62 NSCLC
  GI50: 4.93 µM
  TGI: 31.7 µM
OVCAR-4 ovarian
  GI50: 2.97 µM
  TGI: 24.5 µM
RXF 393 renal
  GI50: 2.07 µM
  TGI: 4.78 µM

## O=S(=O)(NC(=S)Nc1ccccc1)c1ccc(N2N=C3c4ccccc4CC3C2c2ccc(Cl)cc2)cc1 (stereo not drawn)
HS 578T breast
  GI50: 30 µM
  TGI: 68.2 µM
NCI-H460 lung
  GI50: 22.2 µM
  TGI: 60 µM
CCRF-CEM leukemia
  GI50: 19.7 µM
  TGI: 57.5 µM
K-562 leukemia
  GI50: 16.4 µM
  TGI: 42.1 µM
SW-620 colon
  GI50: 29.7 µM
  TGI: 75.7 µM
NCI-H522 lung
  GI50: 18.1 µM
  TGI: 38.6 µM
HOP-62 NSCLC
  GI50: 41.3 µM
  TGI: > 100 µM
OVCAR-4 ovarian
  GI50: 42.2 µM
  TGI: > 100 µM
RXF 393 renal
  GI50: 43.1 µM
  TGI: > 100 µM

## O=C1Nc2ccccc2C12CC(c1ccccc1)=NN2 (stereo not drawn)
MALME-3M melanoma
  GI50: 3.89 µM
  TGI: > 100 µM
NCI-H460 lung
  GI50: 3.94 µM
  TGI: > 100 µM
CCRF-CEM leukemia
  GI50: 5.52 µM
  TGI: > 100 µM
K-562 leukemia
  GI50: 3.98 µM
  TGI: > 100 µM
SW-620 colon
  GI50: 3.75 µM
  TGI: > 100 µM
NCI-H522 lung
  GI50: 4.66 µM
  TGI: 76 µM
HOP-62 NSCLC
  GI50: 8.79 µM
  TGI: > 100 µM
OVCAR-4 ovarian
  GI50: 23.6 µM
  TGI: > 100 µM
RXF 393 renal
  GI50: 3.78 µM
  TGI: 36.6 µM

## CCOC(=O)CNC(SC)=C(C#N)C#N
MALME-3M melanoma
  TGI: > 100 µM
NCI-H460 lung
  TGI: > 100 µM
CCRF-CEM leukemia
  TGI: > 100 µM
K-562 leukemia
  TGI: > 100 µM
SW-620 colon
  TGI: > 100 µM
NCI-H522 lung
  TGI: > 100 µM
HOP-62 NSCLC
  TGI: > 100 µM
OVCAR-4 ovarian
  TGI: > 100 µM
RXF 393 renal
  TGI: > 100 µM

## O=C1CC(c2ccccc2)Cc2nc3ccc(Cl)cc3cc21 (stereo not drawn)
HS 578T breast
  GI50: 0.351 µM
  TGI: > 100 µM
MALME-3M melanoma
  GI50: 0.0453 µM
  TGI: 52.9 µM
NCI-H460 lung
  GI50: 0.343 µM
  TGI: > 34.5 µM
CCRF-CEM leukemia
  GI50: 0.0395 µM
  TGI: > 100 µM
K-562 leukemia
  GI50: 0.0859 µM
  TGI: > 100 µM
SW-620 colon
  GI50: 0.323 µM
  TGI: > 100 µM
NCI-H522 lung
  GI50: 0.194 µM
  TGI: 19 µM
HOP-62 NSCLC
  GI50: 0.459 µM
  TGI: > 100 µM
OVCAR-4 ovarian
  GI50: 7.26 µM
  TGI: > 100 µM

## O=C(O)c1cn(C2CC2)c2cc(N3CCN(S(=O)(=O)c4ccc(Cl)c(Cl)c4)CC3)c(F)cc2c1=O
HS 578T breast
  GI50: 4.26 µM
  TGI: > 100 µM
MALME-3M melanoma
  GI50: 2.3 µM
  TGI: 5.24 µM
NCI-H460 lung
  GI50: 3.66 µM
  TGI: > 100 µM
CCRF-CEM leukemia
  GI50: 2.61 µM
  TGI: > 100 µM
K-562 leukemia
  GI50: 3.92 µM
  TGI: > 100 µM
SW-620 colon
  GI50: 4.05 µM
  TGI: > 100 µM
HOP-62 NSCLC
  GI50: 4.77 µM
  TGI: > 100 µM
RXF 393 renal
  GI50: 2.98 µM
  TGI: 9.51 µM

## CSc1nc2c(nc(N)n2C2OCC(O)C(O)C2O)c(=O)[nH]1 (stereo not drawn)
MALME-3M melanoma
  TGI: > 100 µM
NCI-H460 lung
  TGI: > 100 µM
CCRF-CEM leukemia
  TGI: > 100 µM
K-562 leukemia
  TGI: > 100 µM
SW-620 colon
  TGI: > 100 µM
NCI-H522 lung
  TGI: > 100 µM
HOP-62 NSCLC
  TGI: > 100 µM
OVCAR-4 ovarian
  TGI: > 100 µM
RXF 393 renal
  TGI: > 100 µM

## O=C1C[C@@H](c2ccccc2)NCCCCN(O)CCCN1
HS 578T breast
  TGI: > 100 µM
MALME-3M melanoma
  TGI: > 100 µM
CCRF-CEM leukemia
  TGI: > 100 µM
SW-620 colon
  TGI: > 100 µM
NCI-H522 lung
  TGI: > 100 µM
HOP-62 NSCLC
  TGI: > 100 µM
OVCAR-4 ovarian
  TGI: > 100 µM
RXF 393 renal
  TGI: > 100 µM

## CC1=C[C@H]2c3c(c(O)c(O)c4oc5cc(O)cc(O)c5c(=O)c34)[C@H](c3cc(O)c(O)c4oc5cc(O)cc(O)c5c(=O)c34)[C@H]2C(C)(C)C1
HS 578T breast
  GI50: 2.07 µM and 1.49 µM
  TGI: 8.9 µM and 7.39 µM
MALME-3M melanoma
  GI50: 1.73 µM and 1.98 µM
  TGI: 4.1 µM and 5.31 µM
CCRF-CEM leukemia
  GI50: 0.641 µM
  TGI: 4.1 µM
K-562 leukemia
  GI50: 0.477 µM and 0.536 µM
  TGI: 10.3 µM and > 100 µM
SW-620 colon
  GI50: 1.26 µM and 1.28 µM
  TGI: 4.69 µM and 3.5 µM
NCI-H522 lung
  GI50: 1.3 µM and 1.34 µM
  TGI: 3.04 µM and 4.56 µM
HOP-62 NSCLC
  GI50: 1.53 µM
  TGI: 4 µM and 6 µM
OVCAR-4 ovarian
  GI50: 3.92 µM and 2.9 µM
  TGI: 23.2 µM and 16.6 µM
RXF 393 renal
  GI50: 1.76 µM
  TGI: 4.3 µM and 4.04 µM

## O=C1C=C(N2CC2)c2ccccc2C1=O
MALME-3M melanoma
  GI50: 1.93 µM
  TGI: 3.39 µM
NCI-H460 lung
  GI50: 1.71 µM
  TGI: 3.89 µM
CCRF-CEM leukemia
  GI50: 2.32 µM
  TGI: 6.23 µM
K-562 leukemia
  GI50: 2.6 µM
  TGI: 5.66 µM
SW-620 colon
  GI50: 1.34 µM
  TGI: 2.92 µM
NCI-H522 lung
  GI50: 1.42 µM
  TGI: 2.93 µM
HOP-62 NSCLC
  GI50: 1.74 µM
  TGI: 3.13 µM
OVCAR-4 ovarian
  GI50: 1.48 µM
  TGI: 2.8 µM
RXF 393 renal
  GI50: 1.64 µM
  TGI: 3.08 µM

## COc1cc(C/C=C/c2ccccc2)c(OC)cc1O
HS 578T breast
  TGI: 90 µM
MALME-3M melanoma
  TGI: 42.4 µM
NCI-H460 lung
  TGI: 39.7 µM
CCRF-CEM leukemia
  TGI: 52.3 µM
K-562 leukemia
  TGI: 31.6 µM
SW-620 colon
  TGI: 43.3 µM
NCI-H522 lung
  TGI: 40.9 µM
OVCAR-4 ovarian
  TGI: 51.3 µM

## COc1cc(C2[C@H]3C(=O)N(c4ccc(Cc5ccc(N6C(=O)[C@@H]7ON(c8ccccc8)C(c8cc(OC)c(OC)c(OC)c8)[C@@H]7C6=O)cc5)cc4)C(=O)[C@H]3ON2c2ccccc2)cc(OC)c1OC (stereo partly drawn)
MALME-3M melanoma
  TGI: > 100 µM
NCI-H460 lung
  TGI: > 100 µM
CCRF-CEM leukemia
  TGI: > 100 µM
K-562 leukemia
  TGI: > 100 µM
SW-620 colon
  TGI: > 100 µM
NCI-H522 lung
  TGI: > 100 µM
HOP-62 NSCLC
  TGI: > 100 µM
OVCAR-4 ovarian
  TGI: > 100 µM
RXF 393 renal
  TGI: > 100 µM
